Literature values as cited in paper PMC8492600 (Cell Systems, 2021).

Tests used:
[1] = biological target: HLA-A*02:01 (Homo sapiens, UniProt P04439, D140Y/D185E/D98H/E176V/E277Q/G131W/G231S/I119V/I121R/I166T/I218V/L300P/L318F/N151K/N90K/P208A/P217A/Q86G/Q94H/R138H/R169H/T345S)
[2] = biological target: HLA-B*40:01 (Homo sapiens, UniProt P01889, A65T/A93T/A95T/D138N/D98Y/E176V/E69K/N87E/Q56L/Q94N/R180L/S121R/S35A/S48T/T167S/V36M/W171L/Y33H/Y91S)

GFMWLSYFI
binding of the mutated epitope to HLA-A*02:01 [1]: lose binding

MKVTPSGTWL
binding of the mutated epitope to HLA-B*40:01 [2]: lose binding
